Assays:
[1] = tested on: termite (Reticulitermes santonensis); assay: Insecticidal in vitro fumigation test on termites; format: in vivo; settings: 24 hours of fumigation, mortality counted at the end of 48 hours; 25° C.
Protocol: Dead wood infested with termites was collected from the soil on ground occupied by a colony. This dead wood serves as breeding medium. The breeding is maintained at a constant 25° C. and a day/night 12:12 alternation.
The insects are removed in an amount of 2 soldiers per 28 workers.
The tests are carried out in hermetically closed glass jars having a volume of 3 L and containing the insects.
The product to be tested is introduced through a hole 2 mm in diameter with the aid of a micropipette and deposited on a filter paper (2×5 cm: Whatman No. 1) suspended at the centre of the jar where it migrates by capillarity and vaporizes rapidly. The hole is hermetically closed again as quickly as possible.
The jars are placed for 24 hours in an incubator under the same breeding conditions.
At the end of 24 hours, after a few instants of aeration, a first count is made and then the insects are placed again under breeding conditions for another 24 hours. The counting of the mortality is therefore carried out at the end of 48 hours. […] Each test is carried out on a population of 30 to 50 insects and is accompanied by a control without treatment. Several repeats are carried out with doses close to the LC50.

[2] = tested on: larvae of Meloidogyne arenaria; assay: Nematicidal in vitro test on second-stage juvenile larvae; format: in vivo; settings: for Immobility rate after 48 h: 24 h in solution then 24 h in pure water
Protocol: The second-stage juvenile larvae (the free and infesting stage) are immersed for 24 hours in the test solution and then the number of larvae paralysed are counted before transferring them into pure water for another 24 hours. At the end of the 48 hours which have thus elapsed, the larvae paralysed are again counted and the larvae truly dead are counted the next day.
(§1) The breeding of the nematodes was carried out on tomato plants. The tests were carried out with, aqueous solutions of DMDS at 0.0001%, 0.1%, 1% and 5% by mass, of DPDS at 1%, 5% and 10% by mass, and of allicin at 0.0003%, 0.0015% and 0.003% by mass, compared with a control consisting of pure water, and repeated five times. The ovicidal activity was also evaluated according to the same modalities, by counting the number of hatchings after 5 to 20 days following exposure to the products.

[3] = tested on: termite (Reticulitermes santonensis); settings: value given for comparison, not among the 3 products tested; cited from earlier work
[4] = tested on: eggs of nematodes (Meloidogyne arenaria); assay: Ovicidal activity on the eggs of nematodes (number of hatchings); format: in vivo
Protocol: as §1

For `C=CCSSCC=C` [DADS, diallyldisulphide], the “LC50 (Probits method)” value [1] was 0.011 g × 24 h/m^3.

In the case of `C=CCS[S+]([O-])CC=C` (centres unmarked) [allicin, diallyl thiosulphinate], the “Nematostatic and nematicidal activity” value ([2]; at much lower concentrations (0.0003-0.003% by mass)) is reported as “high nematostatic and nematicidal activity”, the “Mortality rate after 72 h” value ([2]; concentration by mass 0.0003 %) is reported as 12% and the “Immobility rate after 48 h” value ([2]; concentration by mass 0.0003 %) is reported as 49%. For the same compound, the “Immobility rate after 24 h” value ([2]; concentration by mass 0.0003 %, aqueous solution) was 7%, the “Mortality rate after 72 h” value ([2]; concentration by mass 0.0015 %) was 45% and the “Immobility rate after 48 h” value ([2]; concentration by mass 0.0015 %) was 85%. The “Immobility rate after 24 h” value ([2]; concentration by mass 0.0015 %, aqueous solution) was 19%, the “Mortality rate after 72 h” value ([2]; concentration by mass 0.003 %) was 63% and the “Immobility rate after 48 h” value ([2]; concentration by mass 0.003 %) was 65%. For the same compound, the “Immobility rate after 24 h” value ([2]; concentration by mass 0.003 %, aqueous solution) was 49% and the “LC50 (Probits method)” value [1] was 0.010 g × 24 h/m^3.

For `CBr` [methyl bromide], the “LC50 of the comparison fumigant” value [3] is listed as 0.1 g×24 h/m^3.

For `CCCSSCCC` [DPDS, dipropyl disulphide], the “Concentration for total efficacy (100% mortality)” value ([2]; by mass, aqueous solution) was “greater than or equal to 1%”, the “Mortality rate after 72 h” value ([2]; concentration by mass 1 %) was 100% and the “Immobility rate after 48 h” value ([2]; concentration by mass 1 %) was 100%. For the same compound, the “Immobility rate after 24 h” value ([2]; concentration by mass 1 %, aqueous solution) was 89%, the “Mortality rate after 72 h” value ([2]; concentration by mass 5 %) was 100% and the “Immobility rate after 48 h” value ([2]; concentration by mass 5 %) was 100%. The “Immobility rate after 24 h” value ([2]; concentration by mass 5 %, aqueous solution) was 93%, the “Mortality rate after 72 h” value ([2]; concentration by mass 10 %) was 100% and the “Immobility rate after 48 h” value ([2]; concentration by mass 10 %) was 100%. For the same compound, the “Immobility rate after 24 h” value ([2]; concentration by mass 10 %, aqueous solution) was 95%, the “Nematostatic and nematicidal activity” value ([2]; concentration of greater than or equal to 1%) was “high nematostatic and nematicidal activity” and the Ovicidal activity ([4]; 1-10 % by mass) was “very high ovicidal activity”. The “Number of hatchings (cumulative)” value ([4]; concentration by mass 1 %, D5, control 550) was 117, the “Number of hatchings (cumulative)” value ([4]; concentration by mass 1 %, D8, control 810) was 183 and the “Number of hatchings (cumulative)” value ([4]; concentration by mass 1 %, D12, control 990) was 200. For the same compound, the “Number of hatchings (cumulative)” value ([4]; concentration by mass 1 %, D15, control 1 030) was 200, the “Number of hatchings (cumulative)” value ([4]; concentration by mass 1 %, D19, control 1 030) was 200 and the “Number of hatchings (cumulative)” value ([4]; concentration by mass 5 %, D5, control 550) was 67. For the same compound, the “Number of hatchings (cumulative)” value ([4]; concentration by mass 5 %, D8, control 810) was 67, the “Number of hatchings (cumulative)” value ([4]; concentration by mass 5 %, D12, control 990) was 67 and the “Number of hatchings (cumulative)” value ([4]; concentration by mass 5 %, D15, control 1 030) was 67. The “Number of hatchings (cumulative)” value ([4]; concentration by mass 5 %, D19, control 1 030) was 67, the “Number of hatchings (cumulative)” value ([4]; concentration by mass 10 %, D5, control 550) was 33 and the “Number of hatchings (cumulative)” value ([4]; concentration by mass 10 %, D8, control 810) was 33. For the same compound, the “Number of hatchings (cumulative)” value ([4]; concentration by mass 10 %, D12, control 990) was 33, the “Number of hatchings (cumulative)” value ([4]; concentration by mass 10 %, D15, control 1 030) was 33 and the “Number of hatchings (cumulative)” value ([4]; concentration by mass 10 %, D19, control 1 030) was 33. For the same compound, the “Reduction in the number of hatchings” value ([4]; on the last day of observation) was “approximately 97%”.

— US8663669B2, “Pesticide treatment of soils or substrates with sulphur compounds” (Arkema France, priority 2002, dated 2014)
